Measurements published in patent US7696218B2, “Substituted 1,3-dialkyl-2,4-dioxo-6-(arylamino)-1,2,3,4-tetrahydropyrimidine-5-hydroxamic acid inhibitors of MAPK/ERK kinase” (Takeda San Diego, Inc., priority 2006, dated 2010).

Molecular target: T1, MEK2 (Homo sapiens, UniProt P36507, S222E/S226D)
T1 construct: 6-histidine tag (N); made in house; host or cells: Spodoptera frugiperda Sf9 (baculovirus) for MEK2; E. coli for ERK1
Assay: MEK2 inhibition assay, fluorescence polarization with IMAP beads (ERK1 / FI-Erktide substrate)
Assay type: biochemical
Settings: 4 nM MEK2, 25 nM ERK1, 400 μM ATP, 500 nM FI-Erktide, 1% DMSO, 22 min at room temperature; values given as ranges; read-out: IC50 of Exemplified Compounds Against MEK2
Description: For MEK2, DNA encoding residues 1-400 (S222E/S226D) of the full-length sequence of the human enzyme may be amplified by PCR and cloned into pFastbac (Invitrogen), which incorporates a 6-histidine tag at the N-terminus. The two mutations, S222E and S226D, may be obtained by quick change PCR. SEQ ID NO: 3 corresponds to residues 1-400 with mutations S222E/S226D, and with the N-terminal 6-histidine tag and SEQ ID NO: 4 is the DNA sequence that was used to encode SEQ ID NO: 3.
Recombinant baculovirus incorporating the MEK1 and MEK2 constructs may be generated by transposition using the Bac-to-Bac system (Invitrogen). High-titer viral stocks may be generated by infection of Spodoptera frugiperda Sf9 cells; the expression of recombinant protein may be carried out by infection of Spodoptera frugiperda Sf9 (Invitrogen) in 5L Wave Bioreactors (Wave Biotech).
Recombinant protein may be isolated from cellular extracts by passage over ProBond resin (Invitrogen). Partially purified extracts of all MEK1 may then be further purified by high pressure liquid chromatography over a SEC2000 gel filtration resin. The purity of MEK1 and MEK2 proteins may be determined on denaturing SDS-PAGE gel. Purified MEK1 and MEK2 may then be concentrated to a final concentration of 3.4 mg/ml and 5.4 mg/ml, respectively. The proteins may be either stored at −78° C. in a buffer containing 50 mM TRIS-HCl pH 7.6, 250 mM NaCl, 0.1 mM EDTA and 0.125 mM TCEP or at −20° C. in the presence of glycerol (final concentration of glycerol at 50%).
The inhibitory properties of compounds relative to MEK1 or MEK2 may be determined using a black 384-well-plate format under the following reaction conditions: 50 mM HEPES pH 7.3, 10 mM NaCl, 10 mM MgCl2, 0.01% Brij35, 1 nM MEK1 or 4 nM MEK2, 25 nM ERK1, 400 μM ATP, 500 nM IPTTPITTYFFFK-5FAM-COOH (FI-Erktide), and 1% DMSO. Reaction product is determined quantitatively by fluorescent polarization using progressive IMAP beads from Molecular Devices.
The assay reaction may be initiated as follows: 2 μl of the mixture of 1.5 μM FI-Erktide and 75 nM ERK with 2 μl of inhibitor (2 fold serial dilutions for 11 data points for each inhibitor) containing 3% DMSO were added to each well of the plate, followed by the addition of 2 μl of the mixture of 3 nM MEK1 or 12 nM MEK2 and 1200 μM ATP to initiate the reaction (final enzyme concentration was 1 nM for MEK1 or 4 nM for MEK2). The reaction mixture may then be incubated at room temperature for 22 min, and quenched and developed by addition of 20 μl of 1:200 dilution of progressive IMAP beads (Molecular Devices) in 80% buffer A, 20% bufferB and 0.003% Tween 20. Fluorescence polarization of the resulting reaction mixtures may be measured after a 1 hour incubation at room temperature.
IC50 values may be calculated by non-linear curve fitting of the compound concentrations and fluorescence polarization signal to the standard IC50 equation.

T1 sequence (P36507 with tags, fused parts or gaps S222E/S226D): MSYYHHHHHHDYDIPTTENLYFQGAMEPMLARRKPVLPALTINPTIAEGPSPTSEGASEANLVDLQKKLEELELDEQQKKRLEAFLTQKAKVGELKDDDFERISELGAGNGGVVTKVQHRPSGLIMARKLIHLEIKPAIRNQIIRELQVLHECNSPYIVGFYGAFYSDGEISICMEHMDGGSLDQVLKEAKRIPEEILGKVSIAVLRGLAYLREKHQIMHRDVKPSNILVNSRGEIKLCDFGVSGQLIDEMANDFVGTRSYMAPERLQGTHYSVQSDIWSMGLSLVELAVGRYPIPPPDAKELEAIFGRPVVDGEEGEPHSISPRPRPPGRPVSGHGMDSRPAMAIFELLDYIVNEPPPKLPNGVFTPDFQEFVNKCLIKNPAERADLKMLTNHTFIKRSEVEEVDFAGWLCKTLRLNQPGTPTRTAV

Row | SMILES | IC50 [µM]
1 | Cn1c(Nc2ccc(I)cc2F)c(C(=O)NO)c(=O)n(C)c1=O [Example 6, 6-(2-Fluoro-4-iodophenylamino)-N-hydroxy-1,3-dimethyl-2,4-dioxo-1,2,3,4-tetrahydropyrimidine-5-carboxamide] | ≤ 0.5
2 | Cc1cc(C(=O)c2c(Nc3ccc(I)cc3F)n(C)c(=O)n(C)c2=O)no1 [Example 30, 6-(2-Fluoro-4-iodophenylamino)-1,3-dimethyl-5-(5-methylisoxazole-3-carbonyl)pyrimidine-2,4(1H,3H)-dione] | > 25
3 | CCOC(=O)c1c(Nc2ccccc2F)n(C)c(=O)n(C)c1=O [Example 21, Ethyl 6-(2-fluorophenylamino)-1,3-dimethyl-2,4-dioxo-1,2,3,4-tetrahydropyrimidine-5-carboxylate] | > 25
4 | Cn1c(Nc2ccc(I)c(F)c2F)c(C(=O)NOC[C@H](O)CO)c(=O)n(C)c1=O [Example 36, (R)-6-(2,3-Difluoro-4-iodophenylamino)-N-(2,3-dihydroxypropoxy)-1,3-dimethyl-2,4-dioxo-1,2,3,4-tetrahydropyrimidine-5-carboxamide] | 0.501 to 2.5
5 | CC(=O)c1c(Nc2ccc(I)cc2F)n(C)c(=O)n(C)c1=O [Example 10, 5-Acetyl-6-(2-fluoro-4-iodophenylamino)-1,3-dimethylpyrimidine-2,4(1H,3H)-dione] | 0.501 to 2.5
6 | Cn1c(=O)c(C(=O)NOC[C@H](O)CO)c(Nc2ccc(I)cc2F)n(CF)c1=O [Example 54, (R)-N-(2,3-Dihydroxypropoxy)-6-(2-fluoro-4-iodophenylamino)-1-(fluoromethyl)-3-methyl-2,4-dioxo-1,2,3,4-tetrahydropyrimidine-5-carboxamide] | 0.501 to 2.5
7 | Cn1c(Nc2ccc(I)cc2F)c(C(N)=O)c(=O)n(C)c1=O [Example 16, 6-(2-Fluoro-4-iodophenylamino)-1,3-dimethyl-2,4-dioxo-1,2,3,4-tetrahydropyrimidine-5-carboxamide] | ≤ 0.5
8 | CCc1cc(Nc2c(C(=O)NOCCO)c(=O)n(C)c(=O)n2C)ccc1I [Example 41, 6-(3-Ethyl-4-iodophenylamino)-N-(2-hydroxyethoxy)-1,3-dimethyl-2,4-dioxo-1,2,3,4-tetrahydropyrimidine-5-carboxamide] | > 25
9 | Cn1c(Nc2ccc(I)cc2F)c(C(=O)NOCC[C@H](O)CO)c(=O)n(C)c1=O [Example 34, (S)-N-(3,4-Dihydroxybutoxy)-6-(2-fluoro-4-iodophenylamino)-1,3-dimethyl-2,4-dioxo-1,2,3,4-tetrahydropyrimidine-5-carboxamide] | 2.5 to 25
10 | Cn1c(Nc2ccc(Br)cc2Cl)c(C(N)=O)c(=O)n(C)c1=O [Example 18, 6-(4-Bromo-2-chlorophenylamino)-1,3-dimethyl-2,4-dioxo-1,2,3,4-tetrahydropyrimidine-5-carboxamide] | 2.5 to 25
11 | Cn1c(Nc2ccc(I)cc2F)c(C(=O)N2CC(O)CO2)c(=O)n(C)c1=O (stereo not drawn) [Example 32, 6-(2-Fluoro-4-iodophenylamino)-5-(4-hydroxyisoxazolidine-2-carbonyl)-1,3-dimethylpyrimidine-2,4(1H,3H)-dione] | 2.5 to 25
12 | Cn1c(Nc2ccc(I)cc2F)c(C(=O)NCCN)c(=O)n(C)c1=O [Example 42, N-(2-Aminoethyl)-6-(2-fluoro-4-iodophenylamino)-1,3-dimethyl-2,4-dioxo-1,2,3,4-tetrahydropyrimidine-5-carboxamide] | 0.501 to 2.5
13 | Cn1c(Nc2ccc(Br)cc2F)c(C(N)=O)c(=O)n(C)c1=O [Example 19, 6-(4-Bromo-2-fluorophenylamino)-1,3-dimethyl-2,4-dioxo-1,2,3,4-tetrahydropyrimidine-5-carboxamide] | 2.5 to 25
14 | Cn1c(Nc2ccc(I)cc2Cl)c(C(=O)NOCCO)c(=O)n(C)c1=O [Example 25, 6-(2-chloro-4-iodophenylamino)-N-(2-hydroxyethoxy)-1,3-dimethyl-2,4-dioxo-1,2,3,4-tetrahydropyrimidine-5-carboxamide] | ≤ 0.5
15 | Cn1c(Nc2ccc(I)cc2F)c(C(=O)C(=O)O)c(=O)n(C)c1=O [Example 31, 2-(6-(2-Fluoro-4-iodophenylamino)-1,3-dimethyl-2,4-dioxo-1,2,3,4-tetrahydropyrimidin-5-yl)-2-oxoacetic acid] | > 25
16 | CCOC(=O)c1c(Nc2ccc(I)cc2F)n(C)c(=O)n(C)c1=O [Example 20, Ethyl 6-(2-fluoro-4-iodophenylamino)-1,3-dimethyl-2,4-dioxo-1,2,3,4-tetrahydropyrimidine-5-carboxylate] | > 25
17 | Cn1c(Nc2ccc(I)cc2F)c(C(=O)NCCN2CCCC2)c(=O)n(C)c1=O [Example 33, 6-(2-Fluoro-4-iodophenylamino)-1,3-dimethyl-2,4-dioxo-N-(2-(pyrrolidin-1-yl)ethyl)-1,2,3,4-tetrahydropyrimidine-5-carboxamide] | 2.5 to 25
18 | Cn1c(Nc2ccc(I)cc2Cl)c(C(=O)NOC[C@@H](O)CO)c(=O)n(C)c1=O [Example 39, (S)-6-(2-chloro-4-iodophenylamino)-N-(2,3-dihydroxypropoxy)-1,3-dimethyl-2,4-dioxo-1,2,3,4-tetrahydropyrimidine-5-carboxamide] | ≤ 0.5
19 | Cn1c(Nc2ccc(I)cc2F)c(C(=O)c2ccco2)c(=O)n(C)c1=O [Example 11, 6-(2-Fluoro-4-iodophenylamino)-5-(furan-2-carbonyl)-1,3-dimethylpyrimidine-2,4(1H,3H)-dione] | 2.5 to 25
20 | Cc1cc(I)ccc1Nc1c(C(=O)NOCCO)c(=O)n(C)c(=O)n1C [Example 35, N-(2-Hydroxyethoxy)-6-(4-iodo-2-methylphenylamino)-1,3-dimethyl-2,4-dioxo-1,2,3,4-tetrahydropyrimidine-5-carboxamide] | ≤ 0.5
21 | CCn1c(Nc2ccc(I)cc2F)c(C(=O)NOCCO)c(=O)n(C)c1=O [Example 51, 1-Ethyl-6-(2-fluoro-4-iodophenylamino)-N-(2-hydroxyethoxy)-3-methyl-2,4-dioxo-1,2,3,4-tetrahydropyrimidine-5-carboxamide] | > 25
22 | Cn1c(Nc2ccc(I)cc2F)c(C(=O)NOCCCO)c(=O)n(C)c1=O [Example 29, 6-(2-Fluoro-4-iodophenylamino)-N-(3-hydroxypropoxy)-1,3-dimethyl-2,4-dioxo-1,2,3,4-tetrahydropyrimidine-5-carboxamide] | 0.501 to 2.5
23 | Cn1c(Nc2ccc(I)cc2F)c(C(=O)NOCCO)c(=O)n(C)c1=O [Example 3, 6-(2-fluoro-4-iodophenylamino)-N-(2-hydroxyethoxy)-1,3-dimethyl-2,4-dioxo-1,2,3,4-tetrahydropyrimidine-5-carboxamide] | ≤ 0.5
24 | CONC(=O)c1c(Nc2ccc(I)cc2F)n(C)c(=O)n(C)c1=O [Example 5, 6-(2-Fluoro-4-iodophenylamino)-N-methoxy-1,3-dimethyl-2,4-dioxo-1,2,3,4-tetrahydropyrimidine-5-carboxamide] | 0.501 to 2.5
25 | Cn1c(Nc2ccc(I)cc2F)c(C(=O)N2CCNCC2)c(=O)n(C)c1=O [Example 43, 6-(2-Fluoro-4-iodophenylamino)-1,3-dimethyl-5-(piperazine-1-carbonyl)pyrimidine-2,4(1H,3H)-dione] | > 25
26 | Cn1c(Nc2ccc(I)cc2F)c(C(=O)NOC[C@H](O)CCO)c(=O)n(C)c1=O [Example 56, 6-(2-Fluoro-4-iodo-phenylamino)-1,3-dimethyl-2,4-dioxo-1,2,3,4-tetrahydropyrimidine-5-carboxylic acid ((R)-2,4-dihydroxy-butoxy)-amide] | 0.501 to 2.5
27 | Cn1c(Nc2ccc(I)cc2Cl)c(C(=O)NOC[C@H](O)CO)c(=O)n(C)c1=O [Example 27, (R)-6-(2-chloro-4-iodophenylamino)-N-(2,3-dihydroxypropoxy)-1,3-dimethyl-2,4-dioxo-1,2,3,4-tetrahydropyrimidine-5-carboxamide] | ≤ 0.5
